Test results published in US8288438B2, “Methods for avoiding edema in the treatment or prevention of PPARγ-responsive diseases, including cancer” (Metabolex, Inc., priority 2005, dated 2012).
Where two headings read alike, the source gives them in different places. Blank lines part the entries; values can stand above or below the compound they belong to.

Tests used:
cytochrome P450 2C9 = cytochrome P450 2C9 (Homo sapiens, UniProt P11712); settings: cited from earlier work
C57BL/6j ob/ob Mice = test: glucose lowering activity of halofenate analogs in C57BL/6J ob/ob mice (Example 14); format: in vivo
Procedure: Male, 8-9 weeks old, C57BL/6J ob/ob mice were purchased from The Jackson Laboratory (Bar Harbor, Me., USA). Animals were housed (4-5 mice/cage) under standard laboratory conditions at 22±3° C. temperature and 50±20% relative humidity, and were maintained on a diet of Purina rodent chow and water ad libitum. Prior to treatment, blood was collected from the tail vein of each animal. Mice that had non-fasting plasma glucose levels between 250 and 500 mg/dl were used. Each treatment group consisted of 8-10 mice that were distributed so that the mean glucose levels were equivalent in each group at the start of the study. Mice were dosed orally by gavage once a day for 1-3 days with either vehicle, (−) halofenic acid, (±) analog 14, 29, 33, 34, 35, 36, 37, or 38 at 125 mg/kg or (−) analog 29, 36, 37 or 38 at 150 mg/kg. compounds were delivered in a liquid formulation containing 5% (v/v) dimethyl sulfoxide (DMSO), 1% (v/v) tween 80 and 0.9% (w/v) methylcellulose. The gavage volume was 10 ml/kg. Blood samples were taken at 6 hours after the each dose and analyzed for plasma glucose. Food intake and body weight were measured daily. Plasma glucose concentrations were determined calorimetrically using glucose oxidase method (Sigma Chemical Co, St. Louis, Mo., USA). Significant difference between groups (comparing drug-treated to vehicle-treated) was evaluated using the Student unpaired t-test.

PPARγ = biological target: T1, PPARγ (Homo sapiens, UniProt P37231); test: partial agonism on PPARγ (Example 8, FIG. 6); format: cell-based
T1 sequence (P37231 1-505): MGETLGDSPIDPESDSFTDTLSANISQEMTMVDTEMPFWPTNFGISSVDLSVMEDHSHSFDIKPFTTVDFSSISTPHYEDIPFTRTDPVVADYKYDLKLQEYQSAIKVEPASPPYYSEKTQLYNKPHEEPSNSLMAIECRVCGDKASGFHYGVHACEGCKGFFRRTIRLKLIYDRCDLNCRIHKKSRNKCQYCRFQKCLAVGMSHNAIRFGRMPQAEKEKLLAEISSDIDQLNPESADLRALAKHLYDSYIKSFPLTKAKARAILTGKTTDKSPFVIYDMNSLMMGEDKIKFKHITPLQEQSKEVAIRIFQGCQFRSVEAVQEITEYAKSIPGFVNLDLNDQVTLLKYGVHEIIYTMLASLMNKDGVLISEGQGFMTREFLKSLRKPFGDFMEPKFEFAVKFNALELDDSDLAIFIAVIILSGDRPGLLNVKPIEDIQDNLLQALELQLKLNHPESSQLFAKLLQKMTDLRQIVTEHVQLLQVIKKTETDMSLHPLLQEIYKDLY
Description: Expression of reporter genes in response to compounds identified as binders of PPARγ may also be used to measure PPARγ activation. PPARγ may be co-transfected with reporter genes known in the art such as, for example, luciferase, β-galactosidase, alkaline phosphatase, fluorescent green protein, or chloramphenicol acetyltransferase. The transfected cells can be exposed to appropriate concentrations of candidate compounds with rosiglitazone as a positive control. Reporter gene expression will be induced by compounds that bind and activate PPARγ. Thus, compounds that induce reporter gene expression can be identified as activators of PPARγ (Forman, et al. (1997) PNAS 94:4312). Preferably the compounds induce reporter gene expression at levels at least 5-10 fold, more preferably 10-100 fold, more preferably 100-500 fold, more preferably 500-1000 fold, most preferably greater than 1000 fold greater than the negative control.
Example 8 illustrates the partial agonism of the (−) isomer of either halofenic acid or halofenate on PPARγ (see, FIG. 6).

[1] = test system: type 2 diabetics with inadequate control on insulin; test: randomized, double-blind, placebo-controlled, multi-centre studies on type 2 diabetics with inadequate control on insulin; format: in vivo, human
Description: Example 9 presents the results of two randomized, double-blind, placebo-controlled, multi-centre studies on type 2 diabetics with inadequate control on insulin. […] Both studies were about 4 months long, with a stabilization/run in period for 2 to 4 weeks and a 3 month treatment period. Endpoints included fasting plasma glucose (FPG), HbA1c, weight, and the incidence of edema.

[2] = test system: human subjects also receiving glyburide; test: 14 days of treatment in human subjects also receiving glyburide (FIG. 19, 20); format: in vivo; settings: after 14 days of treatment
Description: The data for pioglitazone (Actos) is taken from Goldberg R B et al., Diabetes Care 28(7):1547-54 (2005), which is incorporated herein by reference.

monkeys = test: separate animal studies: heart weight or fluid accumulation; format: in vivo; settings: therapeutically relevant doses, data not shown
rats = test: as above; format: in vivo; settings: therapeutically relevant doses, data not shown
[3] = 125 mg/kg oral gavage once a day

Chain of cytochrome P450 2C9 (P11712 whole entry): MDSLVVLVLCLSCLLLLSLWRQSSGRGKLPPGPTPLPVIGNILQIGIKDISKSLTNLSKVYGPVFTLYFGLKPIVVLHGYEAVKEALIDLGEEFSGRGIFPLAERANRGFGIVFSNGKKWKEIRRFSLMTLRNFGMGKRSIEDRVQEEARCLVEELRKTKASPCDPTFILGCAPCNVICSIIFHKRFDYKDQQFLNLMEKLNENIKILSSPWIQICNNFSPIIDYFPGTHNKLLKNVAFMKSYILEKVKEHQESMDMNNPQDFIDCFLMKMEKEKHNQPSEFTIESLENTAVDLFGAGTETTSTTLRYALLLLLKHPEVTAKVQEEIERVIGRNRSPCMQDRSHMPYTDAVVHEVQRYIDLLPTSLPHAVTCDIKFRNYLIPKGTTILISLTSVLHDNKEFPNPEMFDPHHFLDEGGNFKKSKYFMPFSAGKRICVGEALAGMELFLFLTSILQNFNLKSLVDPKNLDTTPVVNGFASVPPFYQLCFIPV

SMILES: O=C(O)C(Oc1cccc(C(F)(F)F)c1)c1ccc(Cl)cc1 (single isomer, unassigned; (+)) [(+) enantiomer of halofenic acid, (+) 4-chlorophenyl-(3-trifluoromethylphenoxy)-acetic acid]
inhibition of cytochrome P450 2C9 (cytochrome P450 2C9): quite potent

SMILES: CC(=O)NCCOC(=O)C(Oc1cccc(C(F)(F)F)c1)c1ccc(Br)cc1 (racemic) [(±)Analog 29]
plasma glucose concentrations vs vehicle (in words) (C57BL/6j ob/ob Mice; [3]): significantly lowered plasma glucose concentrations at 6, 30 and 54 hours

kind of PPARγ agonism (PPARγ): partial PPARγ agonists
SMILES: O=C(O)C(Oc1cccc(C(F)(F)F)c1)c1ccc(Cl)cc1 (racemic) [racemic halofenic acid, 4-Chlorophenyl-(3-trifluoromethylphenoxy)-acetic Acid, reference compound]
inhibition of cytochrome P450 2C9 (cytochrome P450 2C9): found to inhibit

kind of PPARγ agonism (PPARγ): partial agonist
ability to induce PPARγ expression (PPARγ; FIG. 6): a few fold
antagonizing the agonist activity of rosiglitazone (PPARγ; FIG. 6): significantly antagonizing
SMILES: O=C(O)C(Oc1cccc(C(F)(F)F)c1)c1ccc(Cl)cc1 (single isomer, unassigned; (-)) [(−)halofenic acid, (−) (3-trifluoromethylphenoxy) (4-chlorophenyl)acetic acid]
plasma glucose concentrations vs vehicle (in words) (C57BL/6j ob/ob Mice; [3]): significantly reduced plasma glucose concentrations at 6 hours
inhibition of cytochrome P450 2C9 (cytochrome P450 2C9; listed as (−) enantiomer of halofenic acid): about twenty-fold less active

kind of PPARγ agonism (PPARγ): partial PPARγ agonists
SMILES: O=C(O)C(Oc1ccc(Cl)cc1-n1nc2ccccc2n1)c1ccccc1 (racemic) [Formula V]

SMILES: NC(=O)COC(=O)C(Oc1cccc(C(F)(F)F)c1)c1ccc(Cl)cc1 (racemic) [(±)Analog 37]
plasma glucose concentrations vs vehicle (in words) (C57BL/6j ob/ob Mice; [3]): significantly lowered plasma glucose concentrations at 54 hours

SMILES: O=C(NCCOC(=O)C(Oc1cccc(C(F)(F)F)c1)c1ccc(Cl)cc1)c1ccccc1 (racemic) [(±)Analog 36]
plasma glucose concentrations vs vehicle (in words) (C57BL/6j ob/ob Mice; [3]): significantly lowered plasma glucose concentrations at 30 and 54 hours

SMILES: CC(=O)NCCOC(=O)C(Oc1cccc(C(F)(F)F)c1)c1ccc(Cl)cc1 (single isomer, unassigned; (-)) [(−) halofenate, (−) 2-acetamidoethyl 4-chlorophenyl-(3-trifluoromethylphenoxy)acetate]
kind of PPARγ agonism (PPARγ): partial agonist
antagonizing the agonist activity of rosiglitazone (PPARγ; FIG. 6): significantly antagonizing
plasma glucose levels as judged by HbA1c levels compared to placebo group ([1]; 600 mg, analysis removing sites 60 and 70, FIG. 13): lowered
fasting plasma glucose levels compared to placebo group ([1]; 600 mg, sites 60 and 70 removed, FIG. 14, even greater extent than the 400 mg dose): lowered
plasma glucose levels as judged by HbA1c levels compared to placebo group ([1]; 200- and 400 mg, sites 60 and 70 removed, FIG. 15): lowered
fasting plasma glucose levels compared to placebo group ([1]; 200- and 400 mg, sites 60 and 70 removed, FIG. 16): lowered
anti-edema activity ([1]; Phase II clinical trial): had anti-edema activity of its own
side effects: hepatoxicity, edema, heart failure, increased weight gain ([1]; Phase II clinical trial): largely free
adverse effects on selected parameters of upper GI tract, liver, blood, kidney ([1]; data not shown): not associated with an excess of adverse effects
effect on the HDL/cholesterol profile ([1]; data not shown): neutral effect
serum triglycerides ([1]; data not shown): lowered serum triglycerides substantially
weight gain compared to placebo group ([1]; dose of 600 mg, FIG. 18): did not induce weight gain
incidence of edema formation compared to combined placebo groups ([1]; dose range of 200- to 600 mg, both studies, FIG. 17): did not increase the incidence of edema formation
edema formation compared to placebo groups ([1]; doses of 200- and 400 mg, FIG. 9): prevented edema formation
weight gain compared to placebo group ([1]; doses of 200- and 400 mg, FIG. 10): did not induce weight gain
Discontinued due to AE, patients (%) ([1]; first study, 200 mg group): 3 (4.1%)
Discontinued due to AE, patients (%) ([1]; first study, 400 mg group): 3 (4.3%)
fasting plasma glucose levels compared to placebo group ([1]; first study, doses of 200- and 400 mg, FIG. 7): lowered
plasma glucose levels as judged by HbA1c levels compared to placebo group ([1]; first study, doses of 200- and 400 mg, FIG. 8): lowered
Discontinued due to AE, patients (%) ([1]; second study, 600 mg group): 0 (0%)
plasma glucose levels as judged by HbA1c levels, from baseline ([1]; second study, 600 mg, FIG. 12, placebo group demonstrated a comparable response): lowered
fasting plasma glucose levels compared to placebo group ([1]; second study, dose of 600 mg, FIG. 11): lowered
blood glucose levels in patients also receiving glyburide ([2]; FIG. 19): substantially lower
hsCRP levels ([2]; FIG. 20): lower
increases in heart weight or fluid accumulation (monkeys): did not cause increases
increases in heart weight or fluid accumulation (rats): did not cause increases

SMILES: CCCCOC(=O)C(Oc1cccc(C(F)(F)F)c1)c1ccc(Cl)cc1 (racemic) [(±)Analog 33]
plasma glucose concentrations vs vehicle (in words) (C57BL/6j ob/ob Mice; [3]): significantly lowered plasma glucose concentrations at 6 and 54 hours

SMILES: CC(=O)NCCOC(=O)C(Oc1cccc(C(F)(F)F)c1)c1ccc(Br)cc1 (single isomer, unassigned; (-)) [(−)Analog 29]
plasma glucose concentrations vs vehicle (in words) (C57BL/6j ob/ob Mice; (−) analogs, single dose 150 mg/kg): significantly reduced plasma glucose concentrations at 6 hours

SMILES: CN(C)CCOC(=O)C(Oc1cccc(C(F)(F)F)c1)c1ccc(Cl)cc1 (racemic) [(±)Analog 35]
plasma glucose concentrations vs vehicle (in words) (C57BL/6j ob/ob Mice; [3]): significantly lowered plasma glucose concentrations at 30 and 54 hours

SMILES: CC(=O)NCCOC(=O)C(Oc1cccc(C(F)(F)F)c1)c1ccc(F)cc1 (racemic) [(±)Analog 14]
plasma glucose concentrations vs vehicle (in words) (C57BL/6j ob/ob Mice; [3]): significantly lowered plasma glucose concentrations at 6, 30 and 54 hours

SMILES: CN(C)C(=O)COC(=O)C(Oc1cccc(C(F)(F)F)c1)c1ccc(Cl)cc1 (racemic) [(±)Analog 38]
plasma glucose concentrations vs vehicle (in words) (C57BL/6j ob/ob Mice; [3]): significantly lowered plasma glucose concentrations at 6, 30 and 54 hours
